Results reported in EP2022493A1, “Composition comprising at least one optically active phthalamide derivative for controlling animal parasites” (Bayer CropScience AG, priority 2007, dated 2009).

Legend:
[1] = Determination of the logP values by HPLC on reversed-phase column (C 18); type: physicochemical; conditions: HPLC, reversed-phase C 18, 40 °C
Procedure: Determination of the logP values:
The lambda max values were determined in the maxima of the chromatographic signals using the UV spectra from 190 nm to 400 nm.

Boophilus microplus = Boophilus microplus - test (injection into adult ticks); type: in vivo; conditions: application rate of 20 µg/animal; injected into the abdomen of adult ticks; seven days
Procedure: Boophilus microplus - test Solvent: dimethylsulfoxide To produce a suitable preparation of active compound, 1 part by weight of active compound is mixed with the stated amount of solvent, and the concentrate is diluted with containing solvent to the desired concentration. Adult ticks (Boophilus microplus) are treated by injected with compound solution of the desired concentration into the abdomen. Ticks are transferred into replica plates and incubated in a climate chamber for seven days. Eggs which are not clearly fertile or infertile are further incubated for another 35 days until larvae hatch from the untreated controls. After the specified period of time, the laying of fertile eggs in % is determined. 100 % means that all eggs have been fertile; 0 % means that none of the eggs have been fertile.

Musca domestica = Musca domestica - test; type: in vivo; conditions: application rate of 100ppm, adults
Procedure: (§1) Solvent: dimethyl sulfoxide
(§2) To produce a suitable preparation of active compound, 10 mg of active compound are dissolved in 0.5 ml solvent, and the concentrate is diluted with water to the desired concentration.
Prior to the assay, a piece or kitchen sponge is soaked with a mixture of sugar and compound solution and placed into a container. 10 adults (Musca domestica) are placed into the container and closed with a perforated lid.
After the specified period of time, mortality in % is determined. 100 % means that all the flies have been killed; 0 % means that none of the flies have been killed.

Lucilia cuprina larvae = experiment: Lucilia cuprina - test (larvae); type: in vivo; conditions: in Ovis aries, read-out: activity (mortality in %)
Procedure: as §1, §2
Approximately 20 -30 (Lucilia cuprina larvae) are transferred into a test tube containing 1cm^3 of minced horse meat and 0.5 ml aqueous dilution of test compound.
After the specified period of time, mortality in % is determined. 100 % means that all the larvae have been killed; 0 % means that none of the larvae have been killed.

[2] = 0.1% aqueous phosphoric acid/acetonitrile, [a] 0.1% aqueous phosphoric acid and acetonitrile at pH 2.3, linear gradient from 10 to 95 % (v/v) acetonitrile

In the case of `CCS(=O)(=O)C[C@H](C)NC(=O)c1c(I)cccc1C(=O)Nc1ccc(C(F)(C(F)F)C(F)(F)F)cc1Cl` (stereo partly drawn) [Compound 251], the chromatographic logP ([1]; 0.001 m aqueous nh4hco3/acetonitrile, [c] 0.001 molar aqueous NH4HCO3 solution and acetonitrile at pH 7.8, linear gradient from 10 % to 95 % acetonitrile (v/v)) is reported as 3.18, the chromatographic logP [1, 2] is reported as 3.12 and the “activity (laying of fertile eggs in %)” value (Boophilus microplus) is reported as ≥ 80%. For the same compound, the mortality at 100 ppm (Musca domestica) was ≥ 80% and the mortality at 100 ppm (Lucilia cuprina larvae) was ≥ 80%.
In the case of `Cc1c(NC(=O)c2cccc(I)c2C(=O)N[C@@H](C)C[S+](C)[O-])ccc(C(F)(F)C(F)(F)F)c1F` (stereo partly drawn) [Compound 323], the chromatographic logP [1, 2] is reported as 2.5, the “activity (laying of fertile eggs in %)” value (Boophilus microplus) is reported as ≥ 80% and the mortality at 100 ppm (Musca domestica) is reported as ≥ 80%. For the same compound, the mortality at 100 ppm (Lucilia cuprina larvae) was ≥ 80%.
